Results as given in patent US12509460B2 (Skyhawk Therapeutics, Inc., priority 2019, dated 2025).

What was measured:
[1] = tested on: SMN protein in spinal muscular atrophy (SMA) patient fibroblasts (GM03813, Coriell); assay: SMN protein assay, Mesoscale Discovery (MSD); type: cell-based, human; settings: SMA patient fibroblasts GM03813, 48 hours, MSD; read-out: SMN2 protein EC50
Method in brief: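 Absolute SMN levels were quantified by MSD against an SMN protein standard curve (1 μg/ml to 19.5 pg/ml) run on each plate. Samples were lysates of GM03813 patient fibroblasts (7000 cells/well) treated 48 hours with compound doses from 2.5 μM down to 0.6 nM.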

[2] = tested on: mHTT protein in GM04724 (CAG 70/20) Huntington's disease patient lymphoblast cells; assay: mHTT protein assay, 2B7-MW1 assay via Mesoscale Discovery (MSD); type: cell-based, human; settings: GM04724 Huntington's disease patient lymphoblasts
Method in brief: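 Signal from the 2B7-MW1 antibody pair on MSD, rising with polyQ length and smaller HTT fragments, measured mHTT after 48 h compound exposure (0.6 nM–10 μM) in GM04724 cells. A parallel replicate plate gave CellTiter Glo viability.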

[3] = tested on: MDR1; assay: Blood-brain-barrier (BBB) penetration potential via MDCK-MDR1 permeability assay; settings: dog, MDCK-MDR1, pH 7.4, MDCK-MDR1: Efflux, efflux ratio
[4] = tested on: MDR1 (P-gp); assay: as above; settings: dog; for Papp A→B at 120 min, 5 μM: MDCK-MDR1, pH 7.4, MDCK-MDR1: Papp A-B, A-B direction; for Papp B→A at 120 min, 5 μM: MDCK-MDR1, pH 7.4, MDCK-MDR1: Papp B-A, B-A direction
[5] = tested on: MDR1-MDCK cell monolayers; assay: as above; settings: for MDCK-MDR1: % Recov A-B: A-B direction; for MDCK-MDR1: % Recov B-A: B-A direction
[6] = tested on: SMN FL and SMN Δ7 in spinal muscular atrophy (SMA) patient fibroblasts (GM03813, Coriell); assay: Quantitative splicing assay (SMN), qPCR; type: cell-based, human; settings: Homo sapiens, Fibroblast, 24 h, SMA patient fibroblasts GM03813, 24 h, qPCR; read-out: SMN2 Splicing FL EC50
Description: Spinal muscular atrophy (SMA) patient fibroblasts (GM03813, Coriell) are plated in 96-well plates at 50,000 cells/well. […] Treated cells are lysed and cDNA synthesized using the Fast Advanced Cells-to-Ct kit (Thermofisher A35378) according to the manufacturer's instructions. 2 μL of each cDNA are used in qPCR reactions. […] Reactions are run in a Quant Studio 6 qPCR instrument with default settings.

[7] = Quantitative splicing assay (HTT), qPCR; type: cell-based, human; settings: Homo sapiens, GM04724, 24 h, GM04724 lymphoblasts, qPCR, read-out: HTT Splicing: E49-50 EC50
Method in brief: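 TaqMan qPCR on cell-lysate cDNA quantifies cryptic-exon inclusion from HTT intron 49. Lymphoblasts plated at 50,000 cells/well had received compound for 24 h, 0.15 nM-2.5 uM range, 0.1% DMSO.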

CN(c1ccc(-c2ccc(C#N)cc2O)nn1)[C@@H]1C[C@H]2CCC[C@H](N2)[C@@H]1F [Compound 39A, 4-(6-(((1S,2S,3R,5R)-2-fluoro-9-azabicyclo[3.3.1]nonan-3-yl)(methyl)amino)pyridazin-3-yl)-3-hydroxybenzonitrile]
EC50 [1]: 0.01 to 15 nM
EC50 [2]: 16 to 50 nM
efflux ratio at 120 min, 5 μM [3]: 5
Papp A→B at 120 min, 5 μM [4]: 8.1 ×10⁻⁶ cm/s
Papp B→A at 120 min, 5 μM [4]: 40.5 ×10⁻⁶ cm/s
MDCK-MDR1: % Recov A-B [5]: 83%
MDCK-MDR1: % Recov B-A [5]: 76%
EC50 [6]: 16 to 50 nM
EC50 [7]: 16 to 50 nM

CN(c1ccc(-c2cc3cccnc3cc2O)nn1)[C@@H]1C[C@H]2CCC[C@H](N2)[C@@H]1F [Compound 41A, 6-(6-(((1S,2S,3R,5R)-2-fluoro-9-azabicyclo[3.3.1]nonan-3-yl)(methyl)amino)pyridazin-3-yl)quinolin-7-ol]
EC50 [1]: 0.01 to 15 nM
EC50 [2]: 0.01 to 15 nM
efflux ratio at 120 min, 5 μM [3]: 24
Papp A→B at 120 min, 5 μM [4]: 2 ×10⁻⁶ cm/s
Papp B→A at 120 min, 5 μM [4]: 48.1 ×10⁻⁶ cm/s
MDCK-MDR1: % Recov A-B [5]: 64%
MDCK-MDR1: % Recov B-A [5]: 98%
EC50 [6]: 16 to 50 nM
EC50 [7]: 51 to 100 nM

CN(c1ccc(-c2cc3cccnc3cc2O)nn1)[C@H]1C[C@@H]2CCC[C@@H](N2)[C@H]1F [Compound 41B, 6-(6-(((1R,2R,3S,5S)-2-fluoro-9-azabicyclo[3.3.1]nonan-3-yl)(methyl)amino)pyridazin-3-yl)quinolin-7-ol]
EC50 [1]: 0.01 to 15 nM
EC50 [2]: 0.01 to 15 nM
efflux ratio at 120 min, 5 μM [3]: 14
Papp A→B at 120 min, 5 μM [4]: 2.57 ×10⁻⁶ cm/s
Papp B→A at 120 min, 5 μM [4]: 36.7 ×10⁻⁶ cm/s
MDCK-MDR1: % Recov A-B [5]: 60%
MDCK-MDR1: % Recov B-A [5]: 95%
EC50 [6]: 16 to 50 nM
EC50 [7]: 16 to 50 nM

CN(c1ccc(-c2cc3occc(=O)c3cc2O)nn1)[C@@H]1C[C@H]2CC[C@H](N2)[C@@H]1F [Compound 43A, 7-(6-(((1S,2S,3R,5R)-2-fluoro-8-azabicyclo[3.2.1]octan-3-yl)(methyl)amino)pyridazin-3-yl)-6-hydroxy-4H-chromen-4-one]
EC50 [1]: 0.01 to 15 nM
EC50 [2]: 16 to 50 nM
efflux ratio at 120 min, 5 μM [3]: 11
Papp A→B at 120 min, 5 μM [4]: 2.14 ×10⁻⁶ cm/s
Papp B→A at 120 min, 5 μM [4]: 23.2 ×10⁻⁶ cm/s
MDCK-MDR1: % Recov A-B [5]: 64%
MDCK-MDR1: % Recov B-A [5]: 58%
EC50 [6]: 16 to 50 nM
EC50 [7]: 51 to 100 nM

CN(c1ccc(-c2cc3occc(=O)c3cc2O)nn1)[C@H]1C[C@@H]2CC[C@@H](N2)[C@H]1F [Compound 43B, 7-(6-(((1R,2R,3S,5S)-2-fluoro-8-azabicyclo[3.2.1]octan-3-yl)(methyl)amino)pyridazin-3-yl)-6-hydroxy-4H-chromen-4-one]
EC50 [1]: 0.01 to 15 nM
EC50 [2]: 0.01 to 15 nM
efflux ratio at 120 min, 5 μM [3]: 12
Papp A→B at 120 min, 5 μM [4]: 2.32 ×10⁻⁶ cm/s
Papp B→A at 120 min, 5 μM [4]: 28.3 ×10⁻⁶ cm/s
MDCK-MDR1: % Recov A-B [5]: 66%
MDCK-MDR1: % Recov B-A [5]: 48%
EC50 [6]: 0.01 to 15 nM
EC50 [7]: 0.01 to 15 nM

CN(c1ccc(-c2ccc(-c3nnco3)cc2O)nn1)[C@H]1C[C@@H]2CC[C@@H](N2)[C@H]1F [Compound 44B, 2-(6-(((1R,2R,3S,5S)-2-fluoro-8-azabicyclo[3.2.1]octan-3-yl)(methyl)amino)pyridazin-3-yl)-5-(1,3,4-oxadiazol-2-yl)phenol]
EC50 [1]: 16 to 50 nM
EC50 [2]: 0.01 to 15 nM
efflux ratio at 120 min, 5 μM [3]: 7
Papp A→B at 120 min, 5 μM [4]: 8.2 ×10⁻⁶ cm/s
Papp B→A at 120 min, 5 μM [4]: 54.7 ×10⁻⁶ cm/s
MDCK-MDR1: % Recov A-B [5]: 91%
MDCK-MDR1: % Recov B-A [5]: 92%
EC50 [6]: 0.01 to 15 nM
EC50 [7]: 0.01 to 15 nM

CNC(=O)c1cc(O)c(-c2ccc(N(C)[C@H]3C[C@@H]4CC[C@@H](N4)[C@H]3F)nn2)cc1F [Compound 47B, 2-fluoro-4-(6-(((1R,2R,3S,5S)-2-fluoro-8-azabicyclo[3.2.1]octan-3-yl)(methyl)amino)pyridazin-3-yl)-5-hydroxy-N-methylbenzamide]
EC50 [1]: 16 to 50 nM
EC50 [2]: 51 to 100 nM
efflux ratio at 120 min, 5 μM [3]: 40
Papp A→B at 120 min, 5 μM [4]: 1.26 ×10⁻⁶ cm/s
Papp B→A at 120 min, 5 μM [4]: 49.8 ×10⁻⁶ cm/s
MDCK-MDR1: % Recov A-B [5]: 101%
MDCK-MDR1: % Recov B-A [5]: 120%
EC50 [6]: 51 to 100 nM
EC50 [7]: 51 to 100 nM

Cc1cc(=O)c2cc(O)c(-c3ccc(N(C)[C@@H]4C[C@H]5CC[C@H](N5)[C@@H]4F)nn3)cc2o1 [Compound 49A, 7-(6-(((1S,2S,3R,5R)-2-fluoro-8-azabicyclo[3.2.1]octan-3-yl)(methyl)amino)pyridazin-3-yl)-6-hydroxy-2-methyl-4H-chromen-4-one]
EC50 [1]: 0.01 to 15 nM
EC50 [2]: 16 to 50 nM
efflux ratio at 120 min, 5 μM [3]: 43
Papp A→B at 120 min, 5 μM [4]: 0.72 ×10⁻⁶ cm/s
Papp B→A at 120 min, 5 μM [4]: 30.7 ×10⁻⁶ cm/s
MDCK-MDR1: % Recov A-B [5]: 93%
MDCK-MDR1: % Recov B-A [5]: 78%
EC50 [6]: 0.01 to 15 nM
EC50 [7]: 16 to 50 nM

Cc1cc(=O)c2cc(O)c(-c3ccc(N(C)[C@H]4C[C@@H]5CC[C@@H](N5)[C@H]4F)nn3)cc2o1 [Compound 49B, 7-(6-(((1R,2R,3S,5S)-2-fluoro-8-azabicyclo[3.2.1]octan-3-yl)(methyl)amino)pyridazin-3-yl)-6-hydroxy-2-methyl-4H-chromen-4-one]
EC50 [1]: 0.01 to 15 nM
EC50 [2]: 0.01 to 15 nM
efflux ratio at 120 min, 5 μM [3]: 38
Papp A→B at 120 min, 5 μM [4]: 0.86 ×10⁻⁶ cm/s
Papp B→A at 120 min, 5 μM [4]: 32.9 ×10⁻⁶ cm/s
MDCK-MDR1: % Recov A-B [5]: 86%
MDCK-MDR1: % Recov B-A [5]: 91%
EC50 [6]: 0.01 to 15 nM
EC50 [7]: 0.01 to 15 nM

Cc1cc(=O)c2cc(-c3ccc(N(C)[C@@H]4C[C@H]5CC[C@H](N5)[C@@H]4F)nn3)c(O)cc2o1 [Compound 50A, 6-(6-(((1S,2S,3R,5R)-2-fluoro-8-azabicyclo[3.2.1]octan-3-yl)(methyl)amino)pyridazin-3-yl)-7-hydroxy-2-methyl-4H-chromen-4-one]
EC50 [1]: 0.01 to 15 nM
EC50 [2]: 0.01 to 15 nM
efflux ratio at 120 min, 5 μM [3]: 32
Papp A→B at 120 min, 5 μM [4]: 2.16 ×10⁻⁶ cm/s
Papp B→A at 120 min, 5 μM [4]: 68.3 ×10⁻⁶ cm/s
MDCK-MDR1: % Recov A-B [5]: 85%
MDCK-MDR1: % Recov B-A [5]: 92%
EC50 [6]: 16 to 50 nM
EC50 [7]: 0.01 to 15 nM

Cc1cc(=O)c2cc(-c3ccc(N(C)[C@H]4C[C@@H]5CC[C@@H](N5)[C@H]4F)nn3)c(O)cc2o1 [Compound 50B, 6-(6-(((1R,2R,3S,5S)-2-fluoro-8-azabicyclo[3.2.1]octan-3-yl)(methyl)amino)pyridazin-3-yl)-7-hydroxy-2-methyl-4H-chromen-4-one]
EC50 [1]: 0.01 to 15 nM
EC50 [2]: 0.01 to 15 nM
efflux ratio at 120 min, 5 μM [3]: 29
Papp A→B at 120 min, 5 μM [4]: 1.81 ×10⁻⁶ cm/s
Papp B→A at 120 min, 5 μM [4]: 51.8 ×10⁻⁶ cm/s
MDCK-MDR1: % Recov A-B [5]: 80%
MDCK-MDR1: % Recov B-A [5]: 95%
EC50 [6]: 0.01 to 15 nM
EC50 [7]: 0.01 to 15 nM
